{"source": "patent US20120270250A1", "about": "“TEST SYSTEM FOR MEASURING MEST ACTIVITY AS WELL AS METHODS AND USES INVOLVING THE SAME” (SANOFI, priority 2009, published 2012)", "key": {"MEST T579B": {"target": "T1, MEST T579B (Homo sapiens, UniProt Q5EB52)", "T1 construct": "T579B=amino acids 2-335 and T580B=amino acids 11-335; made in house; host or cells: Sf9 insect cells (baculovirus, pVL1392); crude total membranes", "T1 sequence (Q5EB52 2-335)": "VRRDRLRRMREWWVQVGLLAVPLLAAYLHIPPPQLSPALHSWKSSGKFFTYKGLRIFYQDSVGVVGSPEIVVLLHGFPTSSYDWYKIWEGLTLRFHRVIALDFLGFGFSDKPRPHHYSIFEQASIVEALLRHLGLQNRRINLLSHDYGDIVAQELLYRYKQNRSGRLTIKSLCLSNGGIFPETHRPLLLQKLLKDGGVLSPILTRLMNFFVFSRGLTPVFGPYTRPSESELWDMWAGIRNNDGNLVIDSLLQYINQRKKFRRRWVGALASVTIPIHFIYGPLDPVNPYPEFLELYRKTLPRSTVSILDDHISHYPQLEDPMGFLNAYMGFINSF", "assay": "Glycerol 3-phosphate acyl transferase activity, MEST T579B-recombinant Sf9 crude membranes", "type": "biochemical", "description": "(§1) The assay for determining glycerol 3-phosphate acyl transferase is based on the following principle:\n(§2) Glycerol 3-phosphate acyl transferase activity was determined as incorporation of palmitate with palmitoyl CoA as acyl donor and radio-labeled [^3H] glycerol 3-phosphate as acyl acceptor, to obtain radio-labeled palmitoyl glycerol 3-phosphate. Radioactive-labeled product palmitoyl glycerol 3-phosphate was separated from the radio-labeled substrate by addition of a scintillator based on organic solvent in order to determine radioactivity in a suitable counter. After separation of phases, only radio-label in the organic solvent phase, which is saturated with scintillator, is detected, i.e. hydrophobic and amphiphilic substances as radio-labeled palmitoyl glycerol 3-phosphate. Hydrophilic radio-labeled glycerol phosphate, which has not been acylated, remains in the aqueous phase and is, therefore, not counted by the scintillation counter. The low amount of “cross-irradiation” from the aqueous phase to the organic phase was corrected by substracting a blank value of a control (containing all reaction components apart from MEST protein) for all MEST reactions.\n(§3) Membranes of insect cells expressing human recombinant MEST protein (as below) in homogenization buffer adjusted to the desired concentration (determination of protein content by BioRad assay)\n(§4) 10 μl enzyme solution were incubated with 50 μl reaction solution at 25° C. for 60 min. Incubation was carried out in an Eppendorf Thermomixer comfort with gentle agitation (450 min^−1), wherein the openings of the plate were sealed by a protection film (Whatman Uni Seal 7704-0009). The reaction was terminated by addition of 5 μl 200 mM glycerol 3-phosphate and 200 μl scintillation liquid (beta-plate, #1205-440, Perkin Elmer) and incubation under agitation as above at 25° C. for 15 min. After at least 12 hours of incubation at 25° C. without agitation for separation of the phases, radioactivity (in dpm) was measured in a scintillation counter (Wallac 1450 micro beta).\n(§5) The enzyme solution (total membranes of Sf9 insect cells) was produced as follows: Sf9 insect cells were pelleted by centrifugation and frozen in aliquots (about 7-9 g). When needed, pelleted Sf9 insect cells were quickly thawed in a 37° C. water bath and kept on ice until further processing. Thereafter, they were transferred into a 50 ml glass homogenizer containing 10 ml homogenization buffer and, additionally, 0.5 mM DTT for preparing a suspension. Cells were homogenized in a teflon-in-glass homogenizer (10×1500/min at 4° C.). The homogenate was transferred into JA25.5 centrifugation tubes (Beckman #363647), diluted with 10 ml homogenization buffer plus DTT and pelleted by centrifugation (500 g, 5 min, 4° C., refrigerated centrifuge Beckman Avanti JA25I). The supernatant was transferred into ultracentrifugation tubes (Beckman #355618) and centrifugated (100000 g, 60 min, 4° C., Beckman Optima LE-80K). The supernatant was completely removed. The pellet was two times carefully washed with homogenization buffer and then resuspended in homogenization buffer. Enzyme solution was aliquoted, frozen in liquid nitrogen and stored at −80° C.\nThe experiment was carried out as detailed above. Particularly, crude membranes from insect cells (SF9) transfected to express MEST (T579B) were produced and assayed for glycerol 3-phosphate acyltransferase activity (dpm/test) in the presence of A003564556 or S987600. […]\nThe experiment was carried out as detailed above. Particularly, crude membranes of non-transfected insect cells (SF9) or insect cells (SF9) transfected to express either MEST (T579B) or GPAT (GPAT1, -3 or -4) were produced and assayed in the presence of 1 mM N-Ethylmaleimide (NEM) for 1 h or at 41° C. for 10 min."}, "MEST T580B": {"target": "T2, MEST T580B (Homo sapiens, UniProt Q5EB52)", "T2 construct": "T579B=amino acids 2-335 and T580B=amino acids 11-335; made in house; host or cells: Sf9 insect cells (baculovirus, pVL1392); crude total membranes", "T2 sequence (Q5EB52 11-335)": "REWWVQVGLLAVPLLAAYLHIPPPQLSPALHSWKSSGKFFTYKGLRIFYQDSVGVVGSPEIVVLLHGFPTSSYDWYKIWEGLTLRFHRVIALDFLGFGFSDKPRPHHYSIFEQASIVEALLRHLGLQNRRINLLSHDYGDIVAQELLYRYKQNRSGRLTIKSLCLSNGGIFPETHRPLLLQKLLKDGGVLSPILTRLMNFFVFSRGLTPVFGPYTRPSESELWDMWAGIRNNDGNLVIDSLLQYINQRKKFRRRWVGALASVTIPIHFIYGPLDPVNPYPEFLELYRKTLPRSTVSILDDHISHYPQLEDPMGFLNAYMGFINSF", "assay": "Glycerol 3-phosphate acyl transferase activity, MEST T580B-recombinant Sf9 crude membranes", "type": "biochemical", "details": "1 mM NEM for 1 h", "description": "as §1, §2, §3, §4\nas §5, with “The supernatant was transferred into ultracentrifugation tubes (Beckman #355618) and centrifugated (100000 g, 60 min, 4° C., Beckman Optima LE-80K). The supernatant was completely removed. The pellet was two times carefully washed with homogenization buffer and then resuspended in homogenization buffer. Enzyme solution was aliquoted, frozen in liquid nitrogen and stored at −80° C.” left out"}, "[1]": {"tested_on": "endogenous insect cell glycerol 3-phosphate acyltransferase activities", "assay": "Glycerol 3-phosphate acyl transferase activity, non-transfected Sf9 crude membranes", "type": "biochemical, Sf9 insect cells", "details": "1 mM NEM for 1 h", "description": "as §1, §2, §4\nas §5, with “The pellet was two times carefully washed with homogenization buffer and then resuspended in homogenization buffer. Enzyme solution was aliquoted, frozen in liquid nitrogen and stored at −80° C.” left out"}, "[2]": {"details": "1 mM NEM for 1 h, 10 μg Protein/Test"}, "[3]": {"details": "1 mM NEM for 1 h, 30 μg Protein/Test"}, "[4]": {"details": "inhibitor 0.3 μM, MEST T579B 10 μg/Test"}, "[5]": {"details": "inhibitor 1 μM, MEST T579B 10 μg/Test"}, "[6]": {"details": "inhibitor 3 μM, MEST T579B 10 μg/Test"}, "[7]": {"details": "inhibitor 10 μM, MEST T579B 10 μg/Test"}, "[8]": {"details": "inhibitor 30 μM, MEST T579B 10 μg/Test"}, "[9]": {"details": "inhibitor 100 μM, MEST T579B 10 μg/Test"}, "[10]": {"details": "inhibitor 200 μM, MEST T579B 10 μg/Test"}}, "data": [{"compound": "CCN1C(=O)C=CC1=O", "note": "[NEM, N-Ethylmaleimide]", "values": [{"measurement": "Inhibition of MEST activity (in words)", "setting": "MEST T579B; 1 mM NEM for 1 h", "value": "completely"}, {"measurement": "Activity (dpm/Test)", "setting": "MEST T579B; [2]", "value": 49, "unit": "dpm/Test"}, {"measurement": "inhibition at 1000 µM", "setting": "MEST T579B; [2]", "value": 90, "unit": "%"}, {"measurement": "Activity (dpm/Test)", "setting": "MEST T579B; [3]", "value": 53, "unit": "dpm/Test"}, {"measurement": "inhibition at 1000 µM", "setting": "MEST T579B; [3]", "value": 94, "unit": "%"}, {"measurement": "Activity (dpm/Test)", "setting": "MEST T580B; 10 μg Protein/Test", "value": "−11", "unit": "dpm/Test"}, {"measurement": "inhibition at 1000 µM", "setting": "MEST T580B; 10 μg Protein/Test", "value": 101, "unit": "%"}, {"measurement": "Activity (dpm/Test)", "setting": "MEST T580B; 30 μg Protein/Test", "value": 31, "unit": "dpm/Test"}, {"measurement": "inhibition at 1000 µM", "setting": "MEST T580B; 30 μg Protein/Test", "value": 96, "unit": "%"}, {"measurement": "% Inhibition", "setting": "[1]; 10 μg Protein/Test", "value": 95, "unit": "%"}, {"measurement": "Activity (dpm/Test)", "setting": "[1]; 10 μg Protein/Test", "value": 6, "unit": "dpm/Test"}, {"measurement": "% Inhibition", "setting": "[1]; 30 μg Protein/Test", "value": 107, "unit": "%"}, {"measurement": "Activity (dpm/Test)", "setting": "[1]; 30 μg Protein/Test", "value": "−12", "unit": "dpm/Test"}]}, {"compound": "O=C(O)CCCCCCCCCCCNC(=O)NC12CC3CC(CC(C3)C1)C2", "note": "[A003564556]", "values": [{"measurement": "Inhibition of MEST activity (in words)", "setting": "MEST T579B; MEST T579B crude membranes", "value": "partially inhibited"}, {"measurement": "Activity (dpm/Test)", "setting": "MEST T579B; [4]", "value": 905, "unit": "dpm/Test"}, {"measurement": "inhibition at 0.3 µM", "setting": "MEST T579B; [4]", "value": -6, "unit": "%"}, {"measurement": "Activity (dpm/Test)", "setting": "MEST T579B; [5]", "value": 1011, "unit": "dpm/Test"}, {"measurement": "inhibition at 1 µM", "setting": "MEST T579B; [5]", "value": -19, "unit": "%"}, {"measurement": "Activity (dpm/Test)", "setting": "MEST T579B; [6]", "value": 881, "unit": "dpm/Test"}, {"measurement": "inhibition at 3 µM", "setting": "MEST T579B; [6]", "value": -4, "unit": "%"}, {"measurement": "Activity (dpm/Test)", "setting": "MEST T579B; [7]", "value": 845, "unit": "dpm/Test"}, {"measurement": "inhibition at 10 µM", "setting": "MEST T579B; [7]", "value": 1, "unit": "%"}, {"measurement": "Activity (dpm/Test)", "setting": "MEST T579B; [8]", "value": 779, "unit": "dpm/Test"}, {"measurement": "inhibition at 30 µM", "setting": "MEST T579B; [8]", "value": 8, "unit": "%"}, {"measurement": "Activity (dpm/Test)", "setting": "MEST T579B; [9]", "value": 557, "unit": "dpm/Test"}, {"measurement": "inhibition at 100 µM", "setting": "MEST T579B; [9]", "value": 34, "unit": "%"}, {"measurement": "Activity (dpm/Test)", "setting": "MEST T579B; [10]", "value": 458, "unit": "dpm/Test"}, {"measurement": "inhibition at 200 µM", "setting": "MEST T579B; [10]", "value": 48, "unit": "%"}, {"measurement": "IC50", "setting": "MEST T579B; partial inhibition of glycerol 3-phosphate acyl transferase activity", "value": "~200", "unit": "µM"}]}]}
